Organism: Rattus norvegicus
Experiment: Open TG-GATES - Regimen: Single
Format: toxicity, organism-based, Sprague-Dawley
Parameters: regimen Single, gender Male, age 6 weeks
Settings: in vivo, ip, 400 mg/kg, route intraperitoneal injection, dose level High; for APTT / Bas / Eos / Fbg / Hb / Ht / Lym / MCH / MCHC / MCV / Mono / Neu / PT / Plat / RBC / Ret / WBC: tissue Blood; for KIDNEY_L / KIDNEY_R / KIDNEY_TOTAL: tissue Kidney; for LIVER: tissue Liver; for A/G / ALP / ALT / AST / BUN / CRE / Ca / Cl / DBIL / GLC / IP / K / LDH / Na / PL / RALB / TBIL / TC / TG / TP / gamma-GTP: tissue Plasma

## CC(C)=CC(=O)C=C(C)C [PHORONE]
3 h
  TERMINAL_BW: 224 g
  APTT: 18 s
  Bas: 0%
  Eos: 0.8%
  Fbg: 206.6 mg/dL
  Hb: 13.7 g/dL
  Ht: 40.8%
  Lym: 81%
  MCH: 21.9 pg
  MCHC: 33.6%
  MCV: 65.1 fL
  Mono: 5%
  Neu: 13.6%
  PT: 12.9 s
  Plat: 130 x10_4/uL
  RBC: 626.2 x10_4/ul
  Ret: 9.1%
  WBC: 81.1 x10_2/uL
  KIDNEY_L: 0.9 g
  KIDNEY_R: 1 g
  KIDNEY_TOTAL: 1.9 g
  LIVER: 9.4 g
  A/G: 2.4
  ALP: 931 IU/L
  ALT: 51 IU/L
  AST: 106.6 IU/L
  BUN: 23.4 mg/dL
  CRE: 1.1 mg/dL
  Ca: 11 mg/dL
  Cl: 99.4 meq/L
  DBIL: 0.046 mg/dL
  GLC: 292.8 mg/dL
  IP: 9.8 mg/dL
  K: 4.6 meq/L
  LDH: 282.6 IU/L
  Na: 136 meq/L
  PL: 110.6 mg/dL
  RALB: 3.8 g/dL
  TBIL: 0.9 mg/dL
  TC: 67 mg/dL
  TG: 18 mg/dL
  TP: 5.4 g/dL
  gamma-GTP: 1.8 IU/L
6 h
  TERMINAL_BW: 215 g
  APTT: 17.1 s
  Bas: 0%
  Eos: 1.2%
  Fbg: 208.2 mg/dL
  Hb: 13.4 g/dL
  Ht: 40.7%
  Lym: 61%
  MCH: 21.4 pg
  MCHC: 33%
  MCV: 64.8 fL
  Mono: 8%
  Neu: 30.2%
  PT: 13.9 s
  Plat: 123.8 x10_4/uL
  RBC: 627.6 x10_4/ul
  Ret: 9.2%
  WBC: 84.8 x10_2/uL
  KIDNEY_L: 0.9 g
  KIDNEY_R: 1 g
  KIDNEY_TOTAL: 1.9 g
  LIVER: 8.6 g
  A/G: 2.2
  ALP: 925 IU/L
  ALT: 73.2 IU/L
  AST: 174 IU/L
  BUN: 23 mg/dL
  CRE: 0.7 mg/dL
  Ca: 10.5 mg/dL
  Cl: 106.4 meq/L
  DBIL: 0.048 mg/dL
  GLC: 168 mg/dL
  IP: 11.2 mg/dL
  K: 4.4 meq/L
  LDH: 277.8 IU/L
  Na: 138.2 meq/L
  PL: 110.4 mg/dL
  RALB: 3.7 g/dL
  TBIL: 1 mg/dL
  TC: 67.2 mg/dL
  TG: 24.4 mg/dL
  TP: 5.5 g/dL
  gamma-GTP: 1.4 IU/L
9 h
  TERMINAL_BW: 210.1 g
  APTT: 17.1 s
  Bas: 0%
  Eos: 1%
  Fbg: 209.8 mg/dL
  Hb: 13.4 g/dL
  Ht: 40.7%
  Lym: 56.4%
  MCH: 21.6 pg
  MCHC: 33%
  MCV: 65.4 fL
  Mono: 8%
  Neu: 35%
  PT: 13.9 s
  Plat: 123.6 x10_4/uL
  RBC: 622.2 x10_4/ul
  Ret: 10.3%
  WBC: 125.6 x10_2/uL
  KIDNEY_L: 1 g
  KIDNEY_R: 1 g
  KIDNEY_TOTAL: 2 g
  LIVER: 8.3 g
  A/G: 2.1
  ALP: 915.4 IU/L
  ALT: 60.2 IU/L
  AST: 166.6 IU/L
  BUN: 23.8 mg/dL
  CRE: 0.6 mg/dL
  Ca: 10.9 mg/dL
  Cl: 104.6 meq/L
  DBIL: 0.06 mg/dL
  GLC: 155.2 mg/dL
  IP: 11.6 mg/dL
  K: 4.1 meq/L
  LDH: 257 IU/L
  Na: 138.2 meq/L
  PL: 107.4 mg/dL
  RALB: 3.9 g/dL
  TBIL: 0.8 mg/dL
  TC: 71 mg/dL
  TG: 38.6 mg/dL
  TP: 5.8 g/dL
  gamma-GTP: 1.2 IU/L
24 h
  TERMINAL_BW: 201.7 g
  APTT: 24.9 s
  Bas: 0%
  Eos: 0.4%
  Fbg: 190.4 mg/dL
  Hb: 14.1 g/dL
  Ht: 42.5%
  Lym: 77%
  MCH: 21.6 pg
  MCHC: 33.1%
  MCV: 65.1 fL
  Mono: 3.2%
  Neu: 19.4%
  PT: 20 s
  Plat: 121.3 x10_4/uL
  RBC: 652.2 x10_4/ul
  Ret: 7.6%
  WBC: 140.6 x10_2/uL
  KIDNEY_L: 1.1 g
  KIDNEY_R: 1.1 g
  KIDNEY_TOTAL: 2.1 g
  LIVER: 9.4 g
  A/G: 2.2
  ALP: 828.6 IU/L
  ALT: 296.8 IU/L
  AST: 1408.4 IU/L
  BUN: 19.2 mg/dL
  CRE: 0.5 mg/dL
  Ca: 10.2 mg/dL
  Cl: 110.6 meq/L
  DBIL: 0.2 mg/dL
  GLC: 167.2 mg/dL
  IP: 8.4 mg/dL
  K: 3.9 meq/L
  LDH: 4785 IU/L
  Na: 139.2 meq/L
  PL: 97.6 mg/dL
  RALB: 3.7 g/dL
  TBIL: 0.6 mg/dL
  TC: 56.8 mg/dL
  TG: 23.2 mg/dL
  TP: 5.4 g/dL
  gamma-GTP: 0.8 IU/L

Source: ChEMBL document CHEMBL3885861, “Open TG-GATES”
